Reference: ChEMBL document CHEMBL5108025, “New thiazole-based derivatives as EGFR/HER2 and DHFR inhibitors: Synthesis, molecular modeling simulations and anticancer activity” (Eur J Med Chem, 2022)
The source made the active and inactive calls. The rule behind the calls is not given here.

Columns and labels:
[1] = tested on: Breast carcinoma cell; test: Induction of apoptosis in human breast cancer cells assessed as normalization of caspase-3 expression measured as caspase-3 score; assay type: functional, Breast cancer cell line
[2] = Toxicity in 7,12-dimethylbenz [a]anthracene-induced non-lactating mammary glands solid tumor model of female Swiss albino mouse assessed as reduction in body weight at 10 mg/kg, ip; assay type: organism-based; parameters: scale not given: the % may be the effect or the level left; conditions: in vivo
[3] = tested on: MCF7; test: Induction of cell cycle arrest in human MCF7 cells assessed as increase in DNA content at S phase measured by propidium iodide/RNAse staining based flow cytometry analysis (reference value: […]%); assay type: functional
[4] = Antitumor activity in 7,12-dimethylbenz [a]anthracene-induced non-lactating mammary glands solid tumor model of female Swiss albino mouse assessed as mean tumor volume at 10 mg/kg, ip; assay type: functional
[5] = Antitumor activity in 7,12-dimethylbenz [a]anthracene-induced non-lactating mammary glands solid tumor model of female Swiss albino mouse assessed as reduction in tumor volume at 10 mg/kg, ip; assay type: functional; parameters: scale not given: the % may be the effect or the level left
[6] = target: Receptor tyrosine-protein kinase erbB-2 (Homo sapiens, UniProt P04626); test: Inhibition of recombinant human HER2 incubated for 40 to 45 mins and measured after 15 mins by Kinase-Glo Max assay
[7] = target: Epidermal growth factor receptor (Homo sapiens, UniProt P00533)
Description: Inhibition of recombinant human EGFR incubated for 40 to 45 mins and measured after 15 mins by Kinase-Glo Max assay

[8] = tested on: HepG2; test: cells; conditions: Homo sapiens, HepG2, 72 h
[9] = tested on: MCF7; test: Induction of apoptosis in human MCF7 cells assessed as early apoptotic cells level measured by propidium iodide/RNAse staining based flow cytometry analysis (reference value: […]); assay type: functional
[10] = tested on: HeLa; test: Antiproliferative activity against human HeLa cells after 72 hrs by MTT assay; assay type: functional, cell-based
[11] = tested on: PC-3; test: Antiproliferative activity against human PC-3 cells after 72 hrs by MTT assay; assay type: functional, cell-based; conditions: PC-3, 72 h
[12] = tested on: MCF7; test: Induction of necrosis in human MCF7 cells assessed as necrotic cells level measured by propidium iodide/RNAse staining based flow cytometry analysis (reference value: 0.9%); assay type: functional
[13] = tested on: WI-38; test: Antiproliferative activity against human WI-38 cells after 72 hrs by MTT assay; assay type: functional, cell-based; conditions: WI-38, 72 h
[14] = tested on: MCF7; test: Induction of apoptosis in human MCF7 cells assessed as total apoptotic cells level measured by propidium iodide/RNAse staining based flow cytometry analysis (reference value: 0.73%); assay type: functional
[15] = target: T1, Dihydrofolate reductase (Homo sapiens, UniProt P00374); test: Inhibition of recombinant human DHFR expressed in Escherichia coli incubated for 15 mins and measured by ELISA
T1 sequence (P00374 whole entry): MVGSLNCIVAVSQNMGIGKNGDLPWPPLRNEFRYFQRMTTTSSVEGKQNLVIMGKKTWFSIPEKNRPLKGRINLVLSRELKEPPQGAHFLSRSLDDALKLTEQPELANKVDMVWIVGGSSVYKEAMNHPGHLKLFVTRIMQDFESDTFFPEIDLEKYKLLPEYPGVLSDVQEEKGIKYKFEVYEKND

[16] = tested on: MCF7; test: Induction of apoptosis in human MCF7 cells assessed as late apoptotic cells level measured by propidium iodide/RNAse staining based flow cytometry analysis (reference value: 0.22%); assay type: functional
[17] = tested on: HCT-116; test: cells; conditions: Homo sapiens, HCT-116, 72 h
Description: Antiproliferative activity against human HCT-116 cells after 72 hrs by MTT assay

[18] = tested on: Breast cancer cell line; test: Antitumor activity in 7,12-dimethylbenz [a]anthracene-induced non-lactating mammary glands solid tumor model of female Swiss albino mouse assessed as absence of ductal carcinoma in mammary gland at 10 mg/kg, ip measured by H and E staining method; assay type: functional, organism-based
[19] = tested on: MCF7; test: Induction of cell cycle arrest in human MCF7 cells assessed as increase in DNA content at G0/G1 phase measured by propidium iodide/RNAse staining based flow cytometry analysis (reference value: 57.82%); assay type: functional
[20] = Toxicity in 7,12-dimethylbenz [a]anthracene-induced non-lactating mammary glands solid tumor model of female Swiss albino mouse assessed as mean body weight at 10 mg/kg, ip; assay type: organism-based; conditions: in vivo
[21] = tested on: MCF7; test: cells; conditions: Homo sapiens, MCF7, 72 h
[22] = tested on: MCF7; test: Induction of cell cycle arrest in human MCF7 cells assessed as decrease in DNA content at G2/M phase measured by propidium iodide/RNAse staining based flow cytometry analysis (reference value: 13.4%); assay type: functional; parameters: scale not given: the % may be the effect or the level left
[23] = Toxicity in 7,12-dimethylbenz [a]anthracene-induced non-lactating mammary glands solid tumor model of female Swiss albino mouse assessed as reduction in body weight at 2 mg/kg, ip; assay type: organism-based; parameters: scale not given: the % may be the effect or the level left; conditions: in vivo
[24] = Toxicity in 7,12-dimethylbenz [a]anthracene-induced non-lactating mammary glands solid tumor model of female Swiss albino mouse assessed as mean body weight at 2 mg/kg, ip; assay type: organism-based; conditions: in vivo
[25] = Antitumor activity in 7,12-dimethylbenz [a]anthracene-induced non-lactating mammary glands solid tumor model of female Swiss albino mouse assessed as reduction in tumor volume at 2 mg/kg, ip; assay type: functional; parameters: scale not given: the % may be the effect or the level left
[26] = Antitumor activity in 7,12-dimethylbenz [a]anthracene-induced non-lactating mammary glands solid tumor model of female Swiss albino mouse assessed as mean tumor volume at 2 mg/kg, ip; assay type: functional

Sequence of Epidermal growth factor receptor (P00533 whole entry): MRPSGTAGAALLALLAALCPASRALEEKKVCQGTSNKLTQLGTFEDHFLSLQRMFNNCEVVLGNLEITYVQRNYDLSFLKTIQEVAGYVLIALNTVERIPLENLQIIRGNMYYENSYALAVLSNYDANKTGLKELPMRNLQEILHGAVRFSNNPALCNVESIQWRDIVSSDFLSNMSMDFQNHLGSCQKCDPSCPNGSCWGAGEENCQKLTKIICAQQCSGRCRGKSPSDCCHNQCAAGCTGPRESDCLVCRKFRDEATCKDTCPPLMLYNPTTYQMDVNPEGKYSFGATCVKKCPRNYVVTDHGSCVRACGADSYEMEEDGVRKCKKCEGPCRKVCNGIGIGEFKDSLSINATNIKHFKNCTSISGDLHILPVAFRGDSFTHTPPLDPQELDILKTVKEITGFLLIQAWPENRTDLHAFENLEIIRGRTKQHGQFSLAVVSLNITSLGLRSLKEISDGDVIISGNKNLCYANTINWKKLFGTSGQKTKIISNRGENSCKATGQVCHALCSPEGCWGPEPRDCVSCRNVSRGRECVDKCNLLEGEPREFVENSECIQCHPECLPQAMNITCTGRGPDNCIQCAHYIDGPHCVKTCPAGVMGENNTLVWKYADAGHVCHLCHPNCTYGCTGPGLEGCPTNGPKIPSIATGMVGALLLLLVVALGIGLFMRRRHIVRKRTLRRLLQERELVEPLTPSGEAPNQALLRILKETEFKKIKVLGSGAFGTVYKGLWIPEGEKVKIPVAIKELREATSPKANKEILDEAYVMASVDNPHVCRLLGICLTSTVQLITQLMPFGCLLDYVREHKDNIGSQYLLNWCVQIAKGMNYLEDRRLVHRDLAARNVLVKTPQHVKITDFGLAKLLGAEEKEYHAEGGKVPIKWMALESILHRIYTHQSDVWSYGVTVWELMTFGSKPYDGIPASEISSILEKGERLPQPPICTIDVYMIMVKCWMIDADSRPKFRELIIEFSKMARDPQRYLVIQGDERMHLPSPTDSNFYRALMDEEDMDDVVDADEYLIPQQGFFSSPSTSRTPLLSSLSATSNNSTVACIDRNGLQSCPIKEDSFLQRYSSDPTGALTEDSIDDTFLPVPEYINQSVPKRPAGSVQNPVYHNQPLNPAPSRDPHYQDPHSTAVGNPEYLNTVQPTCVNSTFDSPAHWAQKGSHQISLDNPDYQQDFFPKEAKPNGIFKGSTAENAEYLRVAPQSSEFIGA
Sequence of Receptor tyrosine-protein kinase erbB-2 (P04626 whole entry): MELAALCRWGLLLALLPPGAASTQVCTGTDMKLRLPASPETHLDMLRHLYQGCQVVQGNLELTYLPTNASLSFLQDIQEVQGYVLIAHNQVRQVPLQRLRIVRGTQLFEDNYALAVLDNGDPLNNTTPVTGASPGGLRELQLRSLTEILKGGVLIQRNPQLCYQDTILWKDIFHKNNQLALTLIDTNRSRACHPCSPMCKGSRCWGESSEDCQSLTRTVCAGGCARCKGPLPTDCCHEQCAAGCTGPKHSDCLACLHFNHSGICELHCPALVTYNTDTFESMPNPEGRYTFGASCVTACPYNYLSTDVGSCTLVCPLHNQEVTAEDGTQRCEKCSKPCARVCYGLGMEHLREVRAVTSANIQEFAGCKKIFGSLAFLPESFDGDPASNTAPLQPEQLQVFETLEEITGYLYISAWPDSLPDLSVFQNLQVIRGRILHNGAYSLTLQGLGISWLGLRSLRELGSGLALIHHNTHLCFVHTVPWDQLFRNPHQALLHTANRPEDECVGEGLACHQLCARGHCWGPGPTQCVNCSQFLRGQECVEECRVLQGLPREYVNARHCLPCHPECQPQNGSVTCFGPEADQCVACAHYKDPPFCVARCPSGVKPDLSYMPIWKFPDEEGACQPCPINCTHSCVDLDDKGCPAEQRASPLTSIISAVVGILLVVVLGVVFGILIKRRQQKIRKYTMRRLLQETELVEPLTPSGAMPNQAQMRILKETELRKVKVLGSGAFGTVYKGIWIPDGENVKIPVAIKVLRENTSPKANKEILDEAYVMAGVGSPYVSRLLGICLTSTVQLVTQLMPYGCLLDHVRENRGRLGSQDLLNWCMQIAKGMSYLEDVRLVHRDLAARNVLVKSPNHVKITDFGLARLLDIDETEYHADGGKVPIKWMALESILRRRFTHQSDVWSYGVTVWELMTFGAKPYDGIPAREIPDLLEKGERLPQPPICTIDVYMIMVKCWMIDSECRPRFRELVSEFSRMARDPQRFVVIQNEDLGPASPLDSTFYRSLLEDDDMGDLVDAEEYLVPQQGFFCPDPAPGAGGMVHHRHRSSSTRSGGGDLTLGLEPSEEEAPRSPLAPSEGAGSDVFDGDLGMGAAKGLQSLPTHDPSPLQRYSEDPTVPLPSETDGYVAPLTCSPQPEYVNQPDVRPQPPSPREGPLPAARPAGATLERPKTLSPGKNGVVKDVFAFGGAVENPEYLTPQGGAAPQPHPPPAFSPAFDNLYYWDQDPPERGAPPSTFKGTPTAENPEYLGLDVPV

Compound | Activity [1] | Activity [2] | Activity [3] | Activity [4] | Activity [5] | IC50 [6] | IC50 [7] | IC50 [8] | Activity [9] | IC50 [10] | IC50 [11] | Activity [12] | IC50 [13] | Activity [14] | IC50 [15] | Activity [16] | IC50 [17] | Activity [18] | Activity [19] | Activity [20] | further results
CC(=O)NNC(=O)c1csc2ncc(-c3ccc(Br)cc3)n12 | 1.33 | 17.4% | 32.15% | 0.742 mm3 | 76.5% | 0.108 µM | 0.153 µM | 3.48 µM | 9.63% | 4.78 µM | 12.7 µM | 6.72% | 54.2 µM | 37.67% | 0.291 µM | 28.04% | 6.08 µM | Active | 62.61% | 31.4 g | IC50 [21]: 1.83 µM; Activity [22]: 5.24%
COc1cccc2c1C(=O)c1c(O)c3c(c(O)c1C2=O)C[C@@](O)(C(=O)CO)C[C@@H]3O[C@H]1C[C@H](N)[C@H](O)[C@H](C)O1 [DOXORUBICIN] | 1.5 | – | – | – | – | – | – | – | – | 8.87 µM | 8.54 µM | – | – | – | – | – | – | – | – | – | Activity [23]: 23.7%; Activity [24]: 29 g; Activity [25]: 80.4%; Activity [26]: 0.62 mm3
COc1ccc(-c2c(CN3CCOCC3)nc3scc(C(=O)NN)n23)cc1 | 1.17 | 7.4% | 25.49% | 1.098 mm3 | 65.3% | 0.078 µM | 0.122 µM | 12.2 µM | 13.27% | 9.43 µM | 18.4 µM | 3.25% | 36.8 µM | 35.46% | 0.585 µM | 22.19% | 16.2 µM | Active | 64.25% | 35.2 g | IC50 [21]: 2.37 µM; Activity [22]: 10.26%
